Source: US20260199289A1, “USE OF GLYCOGEN METABOLISM INHIBITORS FOR THE TREATMENT OF CANCER” (THE UNIVERSITY OF VERMONT AND STATE AGRICULTURAL COLLEGE, priority 2022, published 2026)
“Also recorded” adds a separate entry of the source.

Tests used:
8505C thyrospheres = experiment: ATC stem cell thyrosphere growth; type: cell-based, human; settings: 8505C stem cells, day 3 compared to day 1
Excerpt: Bolf et al., “Thyroid Hormone Receptor Beta Induces a Tumor Suppressive Program in Anaplastic Thyroid Cancer,” Molecular Cancer Research 18(10):1443-1452 (2020), which is hereby incorporated by reference in its entirety. Thyrospheres per well were counted and imaged using a digital camera (Diagnostics Instruments) connected to a Nikon Eclipse TS100 inverted microscope.

HepG2 cells = settings: hepatocellular carcinoma; cited from earlier work
PYG isoforms = settings: cited from earlier work
8505C cells [1] = experiment: SRB cell viability assay in ATC cells; type: cell-based, human
Method: In Vitro Cell Staining for Measuring Drug Efficacy—Thyroid cells (4.0×10^3) were seeded in 96 well plates with 100 μl CTM and allowed to adhere overnight. 100 μl of CTM containing 2× concentration of compound was overlayed in each well for 48 hours unless otherwise indicated. Each well then received 100 μl of 10% w/v cold trichloroacetic acid (Fisher) and incubated at 4° C. for 1 hour to fix the cells. Each well was rinsed 3× with DI H2O and stained with 100 μl 0.057% w/v sulforhodamine B (SRB, Sigma-Aldrich) for 30 minutes at room temperature in the dark. Wells were washed 4× with 300 μl 1% v/v acetic acid (Fisher), and remaining SRB stain was solubilized with 200 μl of 10 mM Tris buffer, pH 10.5 (Fisher). Absorbance was measured at 564 nm with a Synergy 2 Multi-Detection Microplate Reader (Agilent Technologies) and normalized to a vehicle control. Drug synergy was evaluated using the coefficient of drug interaction (CDI) formula: CDI=AB/(A×B)×100, where AB is the percent remaining cells of an indicated combination treatment, A is the average percent remaining cells of agent 1 alone, and B is the average percent remaining cells of agent 2 alone. […] Hao et al., “Effect of Lumiracoxib on Proliferation and Apoptosis of Human Nonsmall Cell Lung Cancer Cells In vitro,” Chin Med J (Engl) 121:602-607 (2008), which is hereby incorporated by reference in its entirety. […]

8505C tumors [2] = experiment: Staining of excised xenograft tumors (Ki-67, cleaved PARP, PAS glycogen); type: in vivo, mouse
8505C cells [3] = experiment: Reactive oxygen species quantification (H2DCFDA); type: cell-based, human; settings: for reactive oxygen species (ROS) levels: 8505C ATC cells
Method: Quantification of Reactive Oxygen Species—Thyroid cells (1.0-2.0×10^4) were seeded in a black 96 well plate in 200 μl CTM and allowed to adhere overnight. Wells were washed with PBS and incubated with or without 25 μM H2DCFDA for 45 minutes at 37° C. in a non-CO2 incubator with compounds of interest diluted in phenol-red free RPMI (supplemented with 2 mM glutamine and 10% charcoal-stripped serum). Wells were washed with PBS and received compounds of interest diluted in phenol-red free, supplemented RPMI and incubated at 37° C. in a SpectraMax M4 Microplate Reader (Molecular Devices) to record fluorescent measurements (Ex/Em=485/535 nm) every 15 minutes overnight. Maximum fluorescence intensity was determined (~6 hours), background signal (—H2DCFDA) was subtracted from each group, and corrected values were normalized to the vehicle control.

8505C tumors [4] = experiment: 8505C xenograft tumor growth in nude mice; type: in vivo, mouse; settings: intraperitoneal, 50 mg/kg CP-91,149, 10 mg/kg sorafenib, 6-7 days a week
Method: Ethics statement and animal modeling—All animal procedures were approved by Institutional Animal Care and Use Committee (IACUC) at the University of Vermont. All animals were maintained in pathogen-free conditions and cared for in accordance with IACUC policies and certification. All surgeries were performed with isoflurane anesthesia. Temperature-controlled post-surgical monitoring was implemented to minimize suffering. Mice carrying anaplastic thyroid tumors were euthanized at designated time points for tumor collection. Signs of ulceration or a maximum individual tumor size of 2000 mm^3 were used as a protocol-enforced endpoint.
Mice were given food and water ad libitum. […] These doses were based on previous reports.

Nthy-ori-3-1 cells = experiment: Glycogen content (colorimetric assay, TEM) in normal thyroid cells; type: cell-based, human; settings: Nthy-ori-3-1 normal thyroid cells, CP-91,149 50 μM, 24-hour incubation
Method: Transmission Electron Microscopy of Glycogen Deposits—Cells were seeded in 10 cm dishes and allowed to adhere overnight. […] Cells were then rinsed with PBS and lifted with trypsin for preparation for TEM as described previously. Thwe et al., “Cell-intrinsic Glycogen Metabolism Supports Early Glycolytic Reprogramming Required for Dendritic Cell Immune Responses,” Cell Metabolism 26:558-567.e555 (2017), which is hereby incorporated by reference in its entirety.
Quantification of Levels of Glycogen, Glucose-1-Phosphate, Glucose-6-Phosphate, Lactate, ATP, Glucose, NADPH, and Glutathione—Briefly, cells were seeded in 10 cm dishes (for measuring glycogen and NADPH), 6 well plates (GIP, G6P, lactate, glucose, and glutathione), or 96 well plates (ATP) and allowed to adhere overnight. CTM was aspirated and cells were rinsed with PBS before application of compounds dissolved in CTM for 24 hours, at which point cells were ~90% confluent. CTM was then aspirated, cells were rinsed with PBS, and lysed according to the respective manufacturer protocol (see Table 4) for metabolite analysis.

[5] = mouse, in vivo
Method: Four-week-old athymic female nude mice (outbred homozygous nude Foxn1^nu/Foxn1^nu) were purchased from Jackson Laboratory (Bar Harbor, ME, USA) and were allowed to acclimatize for one week. Mice were given food and water ad libitum. Mice were anesthetized using 3% isoflurane delivered at 1.5 L/min, and tumors were established by subcutaneously injecting 1×10^6 8505C cells with a 26G needle in 100 μL of high concentration Matrigel (Corning Inc.) diluted 1:2 with base RPMI-1640 into each flank of 24 mice. One week later, mice were sorted into four treatment groups to achieve approximately equal body weights between mice. […] Pharmacological agents were dissolved in 100% DMSO and diluted daily in 30% DMSO, 40% PEG300, and 30% PBS and incubated at 55° C. for 10 minutes prior to vortexing to encourage complete solubilization. Tumor dimensions were measured with digital calipers, and the volumes were calculated by the following formula: (Π×a×b^2)/6, where a represents the largest diameter and b is the perpendicular diameter. The body weight of each animal was taken twice a week to measure toxicity. Mice were euthanized with carbon dioxide, and the tumors were harvested, fixed with formalin (Thermo Fisher Scientific), and stored at 4° C. prior to slide sectioning and immunofluorescence analysis.

8505C cells [6] = experiment: RT-qPCR of glucose transporter expression; type: cell-based, human; settings: 50 μM CP-91,149, 24 hours
Excerpt: RNA Extraction and Quantitative Real-Time PCR (qRT-PCR)—Total RNA was extracted using RNeasy Plus Kit (Qiagen) according to manufacturer's protocol. cDNA was synthesized using LunaScript® RT SuperMix Kit (New England Biolabs). Gene expression to validate RNA-seq analysis was quantified by qRT-PCR using Luna® Universal qPCR Master Mix (New England Biolabs) on a QuantStudio 3 real-time PCR system (Thermo Fisher Scientific). Fold change in gene expression compared to endogenous controls was calculated using the ddCT method.

[7] = immunofluorescence of excised tumors

CN(C)C(=O)[C@H](O)[C@H](Cc1ccccc1)NC(=O)c1cc2cc(Cl)ccc2[nH]1 [CP-91,149, 5-chloro-N-[(2S,3R)-4-(dimethylamino)-3-hydroxy-4-oxo-1-phenylbutan-2-yl]-1H-indole-2-carboxamide]
thyrosphere growth / stem cell response (8505C thyrospheres): inhibits 8505C thyrosphere growth | thyrosphere growth / stem cell response (8505C thyrospheres; listed as CP): concentration-dependent response | ROS levels (HepG2 cells): increased ROS levels | autophagic adaptations (HepG2 cells): triggered autophagic adaptations | intrinsic apoptosis (HepG2 cells): induce intrinsic apoptosis | inhibition of PYG isoforms (PYG isoforms): inhibits all PYG isoforms | cell viability with excess (2 mM) pyruvate (8505C cells [1]; 8505C cells, 48 hours): nearly identical to the pyruvate-depleted group | cell viability with excess (25 mM) glucose (8505C cells [1]; 8505C cells, 48 hours): rescued cell viability | cell viability with pyruvate depletion (8505C cells [1]; 8505C cells, 48 hours): able to compensate for loss of pyruvate | total cell viability (8505C cells [1]; ATC cells, 48 hours at 50 μM): modestly but significantly reduced total cell viability | cell viability, concentration and time dependence (SRB assay) (8505C cells [1]; various concentrations and time points): concentration-dependent decrease in cell viability; also recorded: decreases 8505C cell viability in a time-dependent manner | glycogen in tumor tissue (PAS staining) (8505C tumors [2]; excised tumors): significantly increased the level of glycogen in the tumor tissue | Ki-67 expression in xenograft tumors (8505C tumors [2]; [7]): reduction in Ki-67 expression | apoptosis (PARP cleavage) in xenograft tumors (8505C tumors [2]; [7]): induces apoptosis in vivo | apoptosis (PARP cleavage) in xenograft tumors (8505C tumors [2]; immunofluorescence of excised tumors, listed as CP): profoundly induced apoptosis | reactive oxygen species (ROS) levels (8505C cells [3]): induced reactive oxygen species accumulation; also recorded: enhances the relative levels of reactive oxygen species | reactive oxygen species (ROS) levels (8505C cells [3]; listed as CP): three-fold increase; also recorded: higher in cells treated with CP compared to 2-DG | ROS levels with excess glucose (8505C cells [3]; 8505C cells): excess glucose reduced ROS levels only in CP-treated cells | tumor growth (8505C tumors [4]): significantly impaired tumor growth in vivo; also recorded: severely blunted ATC tumor growth in vivo; also recorded: restrict ATC tumor growth | tumor growth (8505C tumors [4]; listed as CP): notably stunted; also recorded: equally as effective as sorafenib | glycogen content (Nthy-ori-3-1 cells): increased glycogen content | glycogen content (Nthy-ori-3-1 cells; listed as CP): significantly increased glycogen content | toxicity (body weight) [5]: low toxicity | SLC2A1 (GLUT1) expression (8505C cells [6]; 149): increases the expression | SLC2A3 (GLUT3) expression (8505C cells [6]; 149): increases the expression | SLC2A4 (GLUT4) expression (8505C cells [6]; 149): increases the expression | SLC2A1 (GLUT1) expression (8505C cells [6]; listed as CP): increase | SLC2A3 (GLUT3) expression (8505C cells [6]; listed as CP): increase | SLC2A4 (GLUT4) expression (8505C cells [6]; listed as CP): did not change
